Tests used:
[1] = system: IBS-related symptoms and conditions; test: 'pre-study' IBS survey of patients taking CGP tablets for 28 days; format: in vivo, human
Description: A ‘pre-study’ IBS survey was taken in a large private gastroenterology practice in southern New Jersey. Each of the patients in the survey consumed a series of 2-tablet doses of CGP, in which each tablet contained 0.335 grams CGP so that each dosage was 0.67 gram of CGP. Two tablets were consumed at breakfast, lunch, and dinner, regardless of the acidity of the foods consumed at the meals, and two additional tablets were consumed with any snack eaten during the day, regardless of the acidity of the snack. The total consumption by each patient varied from 8-10 tablets per day up to 20 tablets per day.
The survey included twelve patients, eight of whom completed graphs of their 28-day experience with CGP. The experiences of the four remaining patients were written up by the medical supervisor based on oral reports. […] The patients marked daily, in 10% increments and 10% decrements, whether they felt up to 100% better or down to 100% worse as a result of the treatment.

[2] = system: Interstitial Cystitis Symptoms; settings: key exacerbant foods and beverages; cited from earlier work
[3] = system: Food-Sensitive Interstitial Cystitis Patients; settings: cited from earlier work
Interstitial Cystitis = settings: ICSG members; cited from earlier work
astrocytes and neurons = settings: culture; cited from earlier work
[4] = cited from earlier work
intestinal musculature = settings: some cases; product withdrawn December 2000; cited from earlier work
[5] = system: excised animal uterus tissue; settings: cited from earlier work; for action on the uterus: in vitro, excised animal uterus tissue

For `O=P([O-])([O-])OCC(O)CO.[Ca+2]` (stereo not drawn) [CGP, 1,2,3-propanetriol, mono(dihydrogen phosphate) calcium salt (1:1)], the “oral reports to the medical supervisor” value ([1]; patients without graphs, one of four discontinued) was “helpful and effective at relieving symptoms and/or pain”, the “effect on pain and/or symptoms in two of the eight patients who completed graphs (flatliners)” value ([1]; self-rated daily graph) was “no effect” and the “results of the remaining six patients who completed graphs” value ([1]; self-rated daily graph, some going to 100% improvement and maintaining that level) was “good to remarkable”. The “drop on the self-rated scale on the day without CGP” value ([1]; single patients, one value each) was 10-20% and “50% better” to “50% worse” and “100% better” to “40% worse.”, the “condition on the one day on which CGP was not ingested” value ([1]; three patients, returned to improved state upon resuming treatment) was “marked condition deterioration” and the “patients showed major improvements in IBS-related symptoms and conditions” value ([1]; twelve patients, oral 0.67 gram per dose with meals and snacks, 28 days) was 75%. For the same compound, the “patients reported a reduction in [urinary] urgency” value [2] was 61.3%, the “patients reported a reduction in pain and discomfort” value [2] was 70.4% and the “pain as a result of consuming CGP” value ([3]; decreased from 76.7%) was 41%. The “urinary urgency as a result of consuming CGP” value ([3]; decreased from 79.5%) was 51%, the “participants enabled to tolerate a wider variety of foods of an acidic nature” value (Interstitial Cystitis) was 81% and the “participants found it to be beneficial” value (Interstitial Cystitis) was 69%. The “effect on astrocytes in vitro” value (astrocytes and neurons) was “enhance the proliferation and differentiation of astrocytes”, the “effect on neurons compared with calcium chloride and non-reagent added media” value (astrocytes and neurons) was “significant survival effects” and the “dissociation of calcium from the anion” value ([4]; regardless of the pH level in the stomach) was “instantly dissociated”.
In the case of `Cc1[nH]cnc1CN1CCc2c(c3ccccc3n2C)C1=O` [Lotronex], the “adverse events in use” value (intestinal musculature) is listed as “intestinal ischemic collapse”.
In the case of `O=C([O-])[O-].[Ca+2]` [calcium carbonate, reference compound], the “time after ingestion until calcium is released” value ([4]; estimated, only in an acidic milieu) is given as 20 to 30 min.
In the case of `O=P([O-])([O-])OCC(O)CO.[Mg+2]` (stereo not drawn) [magnesium glycerophosphate], the “anti-spasmodic behavior on the intestine” value [5] is listed as “exclude the intestine” and the “action on the uterus” value [5] is listed as “uterine anti-spasmodic agents”.
In the case of `O=P([O-])([O-])OC(CO)CO.[Na+].[Na+]` [sodium glycerophosphate, Sodium Beta-Glycerophosphate], the “anti-spasmodic behavior on the intestine” value [5] is given as “exclude the intestine” and the “action on the uterus” value [5] is given as “uterine anti-spasmodic agents”.

From patent US20050130938A1, “Method for alleviating syndromes and conditions of discomfort of the mammalian intestinal and genito-urinary tracts” (AkPharma Inc., priority 2001, published 2005)
